This note sets out measurements from ChEMBL document CHEMBL4680330, “Soloxolone methyl, as a 18βH-glycyrrhetinic acid derivate, may result in endoplasmic reticulum stress to induce apoptosis in breast cancer cells” (Bioorg Med Chem, 2021).

pIC50: −log10 of the molar value.

The test system of one assay is MCF7. As to the kind of experiment: Cytotoxicity against human MCF7 cells assessed as reduction in cell viability incubated for 48 hrs by ATP based luminometry. It counts as functional. The note with it: MCF7, 48 h.
Assay [1] concerns Epidermoid carcinoma cell line. The assay can be described thus: Cytotoxicity against human Epidermoid carcinoma cell line. It counts as functional, cell-based.
The subject of assay [2] is MDA-MB-231. As to the kind of experiment: Induction of apoptosis in human MDA-MB-231 cells assessed as PARP level at 4.39 uM incubated for 24 hrs by Western blot analysis (reference value: 1). In kind it is functional. (In general: Immunoblotting shows a protein as a band on a membrane.)
The test system of assay [3] is MDA-MB-231. As to the kind of experiment: Induction of apoptosis in human MDA-MB-231 cells assessed as cleaved PARP level at 4.39 uM incubated for 24 hrs by Western blot analysis (reference value: 1). In kind it is functional.
The subject of assay [4] is MDA-MB-231. The assay can be described thus: Induction of apoptosis in human MDA-MB-231 cells assessed as pro-caspase 8 level at 4.39 uM incubated for 24 hrs by Western blot analysis (reference value: 1). It counts as functional.
Assay [5] deals with MDA-MB-231. The assay can be described thus: Induction of apoptosis in human MDA-MB-231 cells assessed as cleaved pro-caspase 8 level at 4.39 uM incubated for 24 hrs by Western blot analysis (reference value: 1). It counts as functional.
Assay [6] concerns MDA-MB-231. The assay can be described thus: Induction of apoptosis in human MDA-MB-231 cells assessed as pro-caspase 3 level at 4.39 uM incubated for 24 hrs by Western blot analysis (reference value: 1). In kind it is functional.
The test system of assay [7] is MDA-MB-231. The assay can be described thus: Induction of apoptosis in human MDA-MB-231 cells assessed as cleaved pro-caspase 3 level at 4.39 uM incubated for 24 hrs by Western blot analysis (reference value: 1). It counts as functional.
The subject of assay [8] is MDA-MB-231. As to the kind of experiment: Induction of endoplasmic reticulum stress in human MDA-MB-231 cells assessed as IRE1-alpha expression at 4.39 uM incubated for 24 hrs by Western blot analysis (reference value: 1). In kind it is functional.
In assay [9] the test system is MDA-MB-231. As to the kind of experiment: Induction of endoplasmic reticulum stress in human MDA-MB-231 cells assessed as BIP expression at 4.39 uM incubated for 24 hrs by Western blot analysis (reference value: 1). It counts as functional.
Assay [10] concerns MDA-MB-231. The assay can be described thus: Induction of endoplasmic reticulum stress in human MDA-MB-231 cells assessed as CHOP expression at 4.39 uM incubated for 24 hrs by Western blot analysis (reference value: 1). It counts as functional.

With `CC1(C)[C@@H](O)CC[C@]2(C)[C@H]3C(=O)C=C4[C@@H]5C[C@@](C)(C(=O)O)CC[C@]5(C)CC[C@@]4(C)[C@]3(C)CC[C@@H]12` [ENOXOLONE], the values for the pIC50 (in the assay on MCF7; in assay [1]) were 4.49 and at most 6.52, respectively.
On to `COc1cccc2c1C(=O)c1c(O)c3c(c(O)c1C2=O)C[C@@](O)(C(=O)CO)C[C@@H]3O[C@H]1C[C@H](N)[C@H](O)[C@H](C)O1` [DOXORUBICIN], for which the “fold change (FC)” value is recorded as 0.2 in the assay on MDA-MB-231 [2]; 23.2 in the assay with MDA-MB-231 [3]; 0.3 with MDA-MB-231 [4]; 0.6 in the assay with MDA-MB-231 [5]; 2.5 in the assay on MDA-MB-231 [6]; 2 in the assay with MDA-MB-231 [7]. The “fold change (FC)” value in the assay with MDA-MB-231 [8] was 0.1; in the assay with MDA-MB-231 [9] it was 0.1; with MDA-MB-231 [10], 0.3.
